According to ChEMBL document CHEMBL1132118, “Structure-based design, synthesis, and biological evaluation of irreversible human rhinovirus 3C protease inhibitors. 3. Structure-activity studies of ketomethylene-containing peptidomimetics” (J Med Chem, 1999):

How the values were obtained:
Format in all cases: functional
[1] = The 50% cytotoxic concentration was calculated as the concentration of the drug that decreased the percentage of formazan produced in drug-treated,uninfected cells to 50% of that produced in drug free uninfected cells on serotype 14.
[2] = biological target: T1, Human rhinovirus A protease (Human rhinovirus sp.) (UniProt Q4U254); assay: The EC90 was calculated as the concentration of drug that increased the percentage of formazan production in drug treated, virus infected cells to 50% of that produced by drug free uninfected cells on human rhinovirus-14.
T1 sequence (whole entry): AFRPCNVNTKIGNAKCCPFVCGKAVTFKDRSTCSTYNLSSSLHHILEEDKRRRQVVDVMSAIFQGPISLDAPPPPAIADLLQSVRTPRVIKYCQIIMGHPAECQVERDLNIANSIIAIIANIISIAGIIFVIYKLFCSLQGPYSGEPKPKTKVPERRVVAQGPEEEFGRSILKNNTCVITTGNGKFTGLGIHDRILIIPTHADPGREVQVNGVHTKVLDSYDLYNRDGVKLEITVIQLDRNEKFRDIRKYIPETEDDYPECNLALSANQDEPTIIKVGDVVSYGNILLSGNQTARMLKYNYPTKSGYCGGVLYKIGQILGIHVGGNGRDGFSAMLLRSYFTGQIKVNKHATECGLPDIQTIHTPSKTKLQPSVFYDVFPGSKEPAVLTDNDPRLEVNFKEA

[3] = biological target: T1, Human rhinovirus A protease (Human rhinovirus sp.); assay: The EC90 was calculated as the concentration of drug that increased the percentage of formazan production in drug treated, virus infected cells to 50% of that produced by drug free uninfected cells on human rhinovirus-10.
[4] = biological target: T1, Human rhinovirus A protease (Human rhinovirus sp.); assay: The EC90 was calculated as the concentration of drug that increased the percentage of formazan production in drug treated, virus infected cells to 50% of that produced by drug free uninfected cells on human rhinovirus-1A.
[5] = biological target: T1, Human rhinovirus A protease (Human rhinovirus sp.); assay: The EC90 was calculated as the concentration of drug that increased the percentage of formazan production in drug treated, virus infected cells to 50% of that produced by drug free uninfected cells on human rhinovirus-2.

CCOC(=O)/C=C/[C@H](CCC(N)=O)NC(=O)[C@@H](CC(=O)[C@@H](NC(=O)SC1CCCC1)C(C)C)Cc1ccccc1
CC50 [1]: > 100 µM

CCOC(=O)/C=C/[C@H](CCC(N)=O)NC(=O)[C@@H](CC(=O)[C@@H](NC(=O)c1cc(C)on1)C(C)C)Cc1ccc(F)cc1
EC90 [2]: 0.32 µM | EC90 [3]: 0.79 µM

CCOC(=O)/C=C/[C@H](CCC(N)=O)NC(=O)[C@H](Cc1ccccc1)NC(=O)[C@H](CC(C)C)NC(=O)OCc1ccccc1
CC50 [1]: > 320 µM

CCOC(=O)/C=C/[C@H](CCC(N)=O)NC(=O)[C@@H](CC(=O)[C@H](Cc1ccccc1)NC(=O)SC1CCCC1)Cc1ccc(C)cc1
CC50 [1]: > 100 µM

CCOC(=O)/C=C/[C@H](CCC(N)=O)NC(=O)[C@@H](CC(=O)[C@H](Cc1ccccc1)NC(=O)SC1CCCC1)Cc1ccc(F)cc1
CC50 [1]: > 100 µM

CCOC(=O)/C=C/[C@H](CCC(N)=O)NC(=O)[C@@H](CC(=O)[C@@H](NC(=O)SC1CCCC1)C(C)C)Cc1ccc(C)cc1
CC50 [1]: > 100 µM

CCOC(=O)/C=C/[C@H](CCC(N)=O)NC(=O)[C@@H](CC(=O)[C@@H](NC(=O)SCc1ccccc1)C(C)C)Cc1ccccc1
CC50 [1]: > 100 µM

CCOC(=O)/C=C/[C@H](CCC(N)=O)NC(=O)[C@H](Cc1ccc(F)cc1)NC(=O)[C@@H](NC(=O)SC1CCCC1)C(C)C
EC90 [2]: 1.8 µM | EC90 [4]: 2.5 µM | EC90 [5]: 5.4 µM | EC90 [3]: 2.5 µM

CCOC(=O)/C=C/[C@H](CCC(N)=O)NC(=O)[C@@H](CC(=O)[C@@H](NC(=O)SC1CCCC1)C(C)(C)C)Cc1ccccc1
CC50 [1]: > 100 µM

CCOC(=O)/C=C/[C@H](CCC(N)=O)NC(=O)[C@@H](CC(=O)[C@H](CC(C)C)NC(=O)SC1CCCC1)Cc1ccc(C)cc1
CC50 [1]: > 100 µM

CCOC(=O)/C=C/[C@H](CCC(N)=O)NC(=O)[C@@H](CC(=O)[C@H](CC(C)C)NC(=O)OCc1ccccc1)Cc1ccccc1
CC50 [1]: > 320 µM

CCOC(=O)/C=C/[C@H](CCC(N)=O)NC(=O)[C@@H](CC(=O)[C@H](CC(C)C)NC(=O)SCc1ccccc1)Cc1ccccc1
CC50 [1]: > 100 µM

CCOC(=O)/C=C/[C@H](CCC(N)=O)NC(=O)[C@@H](CC(=O)[C@H](CC(C)C)NC(=O)SC1CCCC1)Cc1ccc(F)cc1
CC50 [1]: > 100 µM

CCOC(=O)/C=C/[C@H](CCC(N)=O)NC(=O)[C@@H](CC(=O)[C@@H](NC(=O)SC1CCCC1)C(C)C)Cc1ccc(F)cc1
EC90 [2]: 0.1 µM | EC90 [4]: 0.2 µM | CC50 [1]: > 100 µM | EC90 [5]: 0.25 µM | EC90 [3]: 0.25 µM

CCOC(=O)/C=C/[C@H](CCC(N)=O)NC(=O)[C@@H](CC(=O)[C@H](CC(C)C)NC(=O)SC1CCCC1)Cc1ccccc1
CC50 [1]: > 100 µM

CCOC(=O)/C=C/[C@H](CCC(N)=O)NC(=O)[C@@H](CC(=O)[C@@H](NC(=O)SC1CCCC1)C(C)C)Cc1ccc(C(F)(F)F)cc1
CC50 [1]: > 100 µM
